Source: EP4345092A1, “NITROBENZAMIDE COMPOUNDS, METHODS AND USES THEREOF” (Faculdade de Farmácia da Universidade de Lisboa, priority 2022, dated 2024)
≈ marks a conversion by molar mass, not a printed value. Where “and” joins values, the source holds several entries; their conditions need not be identical. Equal values may be shown once. Read-outs that look alike come from different tables or passages of the source.

How the values were obtained:
[1] = tested on: Mycobacterium tuberculosis H37Rv (ATCC 27294); assay: Minimum Inhibitory Concentration (MIC), broth microdilution in 96-well plates; format: cell-based
[2] = tested on: Mycobacterium tuberculosis H37Rv (ATCC 27294); assay: microbe, parasite or virus in culture; format: cell-based; settings: 504 h

COc1ccc(OC2CCN(C(=O)c3cc([N+](=O)[O-])cc([N+](=O)[O-])c3)CC2)cc1 [Compound 32, (3,5-dinitrophenyl)(4-(4-methoxyphenoxy)piperidin-1-yl)methanone]
MIC [1]: 2 µg/mL and 4.98 µM

O=C(NCCCOc1ccc(C(F)(F)F)cc1)c1cc([N+](=O)[O-])cc([N+](=O)[O-])c1 [Compound 12, N-(3-(4-trifluoromethylphenoxy)propyl)-3,5-dinitrobenzamide]
MIC [1]: 0.125 µg/mL and 0.302 µM

O=C(c1cc([N+](=O)[O-])cc([N+](=O)[O-])c1)N1CCCCC1 [Compound 34, (3,5-dinitrophenyl)-piperidin-1-yl-methanone]
MBC [2]: 16 µg/mL (≈ 57.3 µM)
MIC [1]: > 16 µg/mL

COc1ccc(OCCCNC(=O)c2cc([N+](=O)[O-])cc([N+](=O)[O-])c2)cc1 [Compound 9, N-(3-(4-methoxyphenoxy)propyl)-3,5-dinitrobenzamide]
MBC [2]: 0.125 µg/mL (≈ 0.333 µM)
MIC [1]: 0.063 µg/mL and 0.168 µM

O=C(NCCOc1ccc(C(F)(F)F)cc1)c1cc([N+](=O)[O-])cc([N+](=O)[O-])c1 [Compound 6]
MIC [1]: 0.125 µg/mL and 0.313 µM

O=C(NCCCCCOc1ccc(Br)cc1)c1cc([N+](=O)[O-])cc([N+](=O)[O-])c1 [Compound 22, N-(5-(4-bromophenoxy)pentyl)-3,5-dinitrobenzamide]
MBC [2]: 0.063 µg/mL (≈ 0.139 µM)
MIC [1]: 0.031 µg/mL and 0.0685 µM

COc1ccc(OCCCCCCCCCNC(=O)c2cc([N+](=O)[O-])cc([N+](=O)[O-])c2)cc1 [Compound 24, N-(9-(4-methoxyphenoxy)nonyl)-3,5-dinitrobenzamide]
MBC [2]: 0.031 µg/mL (≈ 0.0675 µM)
MIC [1]: 0.016 µg/mL and 0.0348 µM

O=C(NCCCO)c1cc([N+](=O)[O-])cc([N+](=O)[O-])c1 [Compound 39, N-(3-hydroxypropyl)-3,5-dinitrobenzamide]
MIC [1]: 4 µg/mL and 14.9 µM

O=C(NCCCCCOc1ccc(C(F)(F)F)cc1)c1cc([N+](=O)[O-])cc([N+](=O)[O-])c1 [Compound 20, N-(5-(4-trifluoromethylphenoxy)pentyl)-3,5-dinitrobenzamide]
MBC [2]: 0.063 µg/mL (≈ 0.143 µM)
MIC [1]: 0.031 µg/mL and 0.0702 µM

O=[N+]([O-])c1cc(C2=NCCO2)cc([N+](=O)[O-])c1 [Compound 47, 2-(3,5-dinitrophenyl)-4,5-dihydrooxazole]
MBC [2]: 4 µg/mL (≈ 16.9 µM)
MIC [1]: 2 µg/mL and 8.43 µM

O=C(c1cc([N+](=O)[O-])cc([N+](=O)[O-])c1)N1CCC(Cc2ccccc2)CC1 [Compound 31, (3,5-dinitrophenyl)-4-benzylpiperidin-1-yl-methanone]
MBC [2]: 2 µg/mL (≈ 5.41 µM)
MIC [1]: 0.5 µg/mL and 1.35 µM

O=C(NCCCCCOc1ccc(Cc2ccccc2)cc1)c1cc([N+](=O)[O-])cc([N+](=O)[O-])c1 [Compound 21, N-(5-(4-benzylphenoxy)pentyl)-3,5-dinitrobenzamide]
MBC [2]: 0.25 µg/mL (≈ 0.539 µM)
MIC [1]: 0.063 µg/mL and 0.136 µM

COc1ccc(OCCCCCCCCCCCNC(=O)c2cc([N+](=O)[O-])cc([N+](=O)[O-])c2)cc1 [Compound 26, N-(11-(4-methoxyphenoxy)undecyl)-3,5-dinitrobenzamide]
MBC [2]: 0.125 µg/mL (≈ 0.256 µM)
MIC [1]: 0.063 µg/mL and 0.129 µM

O=C(NCCCCCCCCCCCO)c1cc([N+](=O)[O-])cc([N+](=O)[O-])c1 [Compound 41, N-(11-hydroxyundecyl)-3,5-dinitrobenzamide]
MBC [2]: 0.25 µg/mL (≈ 0.655 µM)
MIC [1]: 0.125 µg/mL and 0.328 µM

O=C(NCCCOc1ccc(-c2ccccc2)cc1)c1cc([N+](=O)[O-])cc([N+](=O)[O-])c1 [Compound 8, N-(3-(4-phenylphenoxy)propyl)-3,5-dinitrobenzamide]
MBC [2]: 0.125 µg/mL (≈ 0.297 µM)
MIC [1]: 0.063 µg/mL and 0.149 µM

O=C(c1cc([N+](=O)[O-])cc([N+](=O)[O-])c1)N1CCC(O)CC1 [Compound 33, (3,5-dinitrophenyl)-4-hydroxypiperidin-1-yl-methanone]
MBC [2]: 16 µg/mL (≈ 54.2 µM)
MIC [1]: > 16 µg/mL

O=C(NCCCOc1ccc(F)cc1)c1cc([N+](=O)[O-])cc([N+](=O)[O-])c1 [Compound 11, N-(3-(4-fluorophenoxy)propyl)-3,5-dinitrobenzamide]
MBC [2]: 0.125 µg/mL (≈ 0.344 µM)
MIC [1]: 0.063 µg/mL and 0.173 µM

O=C(NCCO)c1cc([N+](=O)[O-])cc([N+](=O)[O-])c1 [Compound 40, N-(2-hydroxyethyl)-3,5-dinitrobenzamide]
MIC [1]: 16 µg/mL and 62.7 µM

O=C(NCCOc1ccccc1)c1cc([N+](=O)[O-])cc(C(F)(F)F)c1 [Compound 42]
MIC ([1]; M. tuberculosis H37Rv, 10th day of incubation, concentration with no visible turbidity, read-out: MIC): 0.25 µg/mL
MIC ([1]; M. tuberculosis H37Rv, 10th day of incubation, same MIC expressed in nM, read-out: MIC): 671 nM

C[N+]1(C)CCN(C(=O)c2cc([N+](=O)[O-])cc([N+](=O)[O-])c2)CC1 [Compound 28, 4-(3,5-dinitrobenzoyl)-1,1-dimethylpiperazin-1-ium]
MBC [2]: > 16 µg/mL
MIC [1]: > 16 µg/mL

O=C(c1cc([N+](=O)[O-])cc([N+](=O)[O-])c1)N1CCOCC1 [Compound 35, (3,5-dinitrophenyl)(morpholino)methanone]
MBC [2]: > 16 µg/mL
MIC [1]: > 16 µg/mL

O=C(NCCCCCOc1ccc(OC(F)(F)F)cc1)c1cc([N+](=O)[O-])cc([N+](=O)[O-])c1 [Compound 16, N-(5-(4-trifluoromethoxyphenoxy)pentyl)-3,5-dinitrobenzamide]
MBC [2]: 0.063 µg/mL (≈ 0.138 µM)
MIC [1]: 0.031 µg/mL and 0.0678 µM

O=C(NCCCCCO)c1cc([N+](=O)[O-])cc([N+](=O)[O-])c1 [Compound 38, N-(5-hydroxypentyl)-3,5-dinitrobenzamide]
MIC [1]: 2 µg/mL and 6.73 µM

O=C(NCCCOc1ccc(OC(F)(F)F)cc1)c1cc([N+](=O)[O-])cc([N+](=O)[O-])c1 [Compound 10, N-(3-(4-trifluoromethoxyphenoxy)propyl)-3,5-dinitrobenzamide]
MBC [2]: 0.25 µg/mL (≈ 0.582 µM)
MIC [1]: 0.063 µg/mL and 0.147 µM

O=C(NCCCCCOc1ccc(-c2ccccc2)cc1)c1cc([N+](=O)[O-])cc([N+](=O)[O-])c1 [Compound 14, N-(5-(4-phenylphenoxy)pentyl)-3,5-dinitrobenzamide]
MBC [2]: 0.125 µg/mL (≈ 0.278 µM)
MIC [1]: 0.063 µg/mL and 0.14 µM

O=[N+]([O-])c1cc(C2=NCCCO2)cc([N+](=O)[O-])c1 [Compound 48, 2-(3,5-dinitrophenyl)-5,6-dihydro-4H-1,3-oxazine]
MBC [2]: > 16 µg/mL
MIC [1]: 16 µg/mL and 63.7 µM

O=C(NCCCCCOc1ccc([N+](=O)[O-])cc1)c1cc([N+](=O)[O-])cc([N+](=O)[O-])c1 [Compound 17, N-(5-(4-nitrophenoxy)pentyl)-3,5-dinitrobenzamide]
MBC [2]: 0.125 µg/mL (≈ 0.299 µM)
MIC [1]: 0.031 µg/mL and 0.0741 µM

O=C(NCCOc1ccc(Br)cc1)c1cc([N+](=O)[O-])cc([N+](=O)[O-])c1 [Compound 5]
MIC [1]: 0.063 µg/mL and 0.154 µM

O=C(NCCCCCN1CCCCC1)c1cc([N+](=O)[O-])cc([N+](=O)[O-])c1 [Compound 44]
MBC [2]: > 16 µg/mL
MIC [1]: 16 µg/mL and 43.9 µM

O=C(NCCCCCOc1ccc(F)cc1)c1cc([N+](=O)[O-])cc([N+](=O)[O-])c1 [Compound 18, N-(5-(4-fluorophenoxy)pentyl)-3,5-dinitrobenzamide]
MBC [2]: 0.063 µg/mL (≈ 0.161 µM)
MIC [1]: 0.031 µg/mL and 0.0792 µM

CCCCCCCCCOCCCCCCCCCNC(=O)c1cc([N+](=O)[O-])cc([N+](=O)[O-])c1 [Compound 36, N-(9-(nonyloxy)nonyl)-3,5-dinitrobenzamide]
MIC [1]: 0.063 µg/mL and 0.127 µM

O=C(NCCOc1ccc(-c2ccccc2)cc1)c1cc([N+](=O)[O-])cc([N+](=O)[O-])c1 [Compound 1]
MIC [1]: 0.063 µg/mL and 0.155 µM

COc1ccc(OCCCCCNC(=O)c2cc([N+](=O)[O-])cc([N+](=O)[O-])c2)cc1 [Compound 15, N-(5-(4-methoxyphenoxy)pentyl)-3,5-dinitrobenzamide]
MBC [2]: 0.125 µg/mL (≈ 0.31 µM)
MIC [1]: 0.063 µg/mL and 0.156 µM

O=C(NCCOc1ccc(Cc2ccccc2)cc1)c1cc([N+](=O)[O-])cc([N+](=O)[O-])c1 [Compound 7]
MIC [1]: 0.063 µg/mL and 0.149 µM

O=C(NCCCCCOc1ccc(Cl)cc1)c1cc([N+](=O)[O-])cc([N+](=O)[O-])c1 [Compound 19, N-(5-(4-chlorophenoxy)pentyl)-3,5-dinitrobenzamide]
MBC [2]: 0.063 µg/mL (≈ 0.154 µM)
MIC [1]: 0.016 µg/mL and 0.0392 µM

O=C(NCCCCCCCCCO)c1cc([N+](=O)[O-])cc([N+](=O)[O-])c1 [Compound 37, N-(9-hydroxynonyl)-3,5-dinitrobenzamide]
MIC [1]: 0.25 µg/mL and 0.707 µM

O=C(c1cc([N+](=O)[O-])cc([N+](=O)[O-])c1)N1CCN(Cc2ccccc2)CC1 [Compound 29, (3,5-dinitrophenyl)-4-benzylpiperazin-1-yl-methanone]
MBC [2]: 4 µg/mL (≈ 10.8 µM)
MIC [1]: 2 µg/mL and 5.4 µM

O=C(NCCCOc1ccccc1)c1cc([N+](=O)[O-])cc([N+](=O)[O-])c1 [Compound 13, N-(3-(phenoxy)propyl)-3,5-dinitrobenzamide]
MBC [2]: 0.125 µg/mL (≈ 0.362 µM)
MIC [1]: 0.063 µg/mL and 0.182 µM

O=C(NCCCCCOc1ccccc1)c1cc([N+](=O)[O-])cc([N+](=O)[O-])c1 [Compound 23, N-(5-(phenoxy)pentyl)-3,5-dinitrobenzamide]
MBC [2]: 0.063 µg/mL (≈ 0.169 µM)
MIC [1]: 0.031 µg/mL and 0.083 µM
